The supplement of paper PMC11451515

Legend:
Settings in all cases: 48 h
NOMO1 = test: cell viability relative to DMSO control; higher = less cytotoxic
Summary of the method: (§1)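 NOMO1 or SEM cells were plated at 500 cells/well and P12-Ichikawa cells at 1000 cells/well in 1536-well plates (5 μl), after each leukemia line had been adapted for at least four passages in each medium. Pin dosing delivered library compounds in DMSO at 11 threefold concentrations, 47 μM to 0.79 nM. CellTiter-Glo One luminescence was read after 48 h at 37°C. Viability is reported as a per-plate percentage of DMSO wells, with cell-free wells as background.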

P12-Ichikawa [1] = test: as above
Summary of the method: as §1

SEM cells [2] = test: as above
Summary of the method: as §1

P12-Ichikawa [3] = test: AUC of viability dose-response curve (% viability x log10 dose units); higher = less sensitive
Summary of the method: (§2)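 Seeding of medium-adapted leukemia cells was at 500 or 1000 cells/well in 1536-well plates, followed by 48 h at 37°C with library compounds in DMSO at 11 threefold doses from 47 μM to 0.79 nM. CellTiter-Glo One luminescence was normalised per plate to DMSO and cell-free wells and fitted as a four-parameter log-logistic function of log10 dose. Area under the curve was integrated by trapezoidal rule, with curves exceeding full viability scaled and curves failing quality control removed.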

SEM cells [4] = test: as above
Summary of the method: as §2

COc1ccccc1OCC(O)COC(N)=O (stereo not given)
cell viability [%]
Settings | NOMO1 | P12-Ichikawa [1] | SEM cells [2]
HPLM + 10% dialyzed FBS, 0.000781 µM | 79.5 | 88.2 | 84
HPLM + 10% dialyzed FBS, 0.00234 µM | 104 | 107 | 102
HPLM + 10% dialyzed FBS, 0.00702 µM | 108 | 103 | 104
HPLM + 10% dialyzed FBS, 0.0211 µM | 119 | 109 | 110
HPLM + 10% dialyzed FBS, 0.0632 µM | 127 | 109 | 118
HPLM + 10% dialyzed FBS, 0.19 µM | 116 | 107 | 114
HPLM + 10% dialyzed FBS, 0.569 µM | 122 | 111 | 109
HPLM + 10% dialyzed FBS, 1.71 µM | 119 | 117 | 106
HPLM + 10% dialyzed FBS, 5.12 µM | 130 | 111 | 119
HPLM + 10% dialyzed FBS, 15.4 µM | 125 | 112 | 111
HPLM + 10% dialyzed FBS, 46.1 µM | 6.3 | 58.1 | 89.1
RPMI 5 mM glucose + 10% FBS, 0.000781 µM | 102 | 112 | 94.6
RPMI 5 mM glucose + 10% FBS, 0.00234 µM | 98.1 | 118 | 110
RPMI 5 mM glucose + 10% FBS, 0.00702 µM | 102 | 117 | 85.6
RPMI 5 mM glucose + 10% FBS, 0.0211 µM | 113 | 114 | 110
RPMI 5 mM glucose + 10% FBS, 0.0632 µM | 109 | 120 | 104
RPMI 5 mM glucose + 10% FBS, 0.19 µM | 98 | 118 | 95.8
RPMI 5 mM glucose + 10% FBS, 0.569 µM | 119 | 124 | 112
RPMI 5 mM glucose + 10% FBS, 1.71 µM | 103 | 106 | 106
RPMI 5 mM glucose + 10% FBS, 5.12 µM | 114 | 118 | 120
RPMI 5 mM glucose + 10% FBS, 15.4 µM | 119 | 126 | 97.6
RPMI 5 mM glucose + 10% FBS, 46.1 µM | 113 | 125 | 99.4
RPMI 5 mM glucose + 10% dialyzed FBS, 0.000781 µM | 94.7 | 93.1 | 108
RPMI 5 mM glucose + 10% dialyzed FBS, 0.00234 µM | 109 | 105 | 109
RPMI 5 mM glucose + 10% dialyzed FBS, 0.00702 µM | 111 | 101 | 103
RPMI 5 mM glucose + 10% dialyzed FBS, 0.0211 µM | 105 | 107 | 123
RPMI 5 mM glucose + 10% dialyzed FBS, 0.0632 µM | 116 | 110 | 106
RPMI 5 mM glucose + 10% dialyzed FBS, 0.19 µM | 119 | 103 | 121
RPMI 5 mM glucose + 10% dialyzed FBS, 0.569 µM | 102 | 110 | 136
RPMI 5 mM glucose + 10% dialyzed FBS, 1.71 µM | 107 | 101 | 93.8
RPMI 5 mM glucose + 10% dialyzed FBS, 5.12 µM | 122 | 113 | 126
RPMI 5 mM glucose + 10% dialyzed FBS, 15.4 µM | 108 | 117 | 118
RPMI 5 mM glucose + 10% dialyzed FBS, 46.1 µM | 100 | 106 | 112

AUC of viability dose-response curve
Settings | HPLM + 10% dialyzed FBS | RPMI 5 mM glucose + 10% FBS | RPMI 5 mM glucose + 10% dialyzed FBS
P12-Ichikawa [3] | 466 | 461 | 461
SEM cells [4] | 467 | 465 | 459
